From patent publication US20240158393A1, “PYRIDONE COMPOUNDS AND METHODS OF USE” (Exelixis, Inc., priority 2021, published 2024)

Experiments:
Human KDR = target: T1, Human KDR (Homo sapiens, UniProt P35968); experiment: Human KDR kinase assay (33P radiometric / HTRF KinEase); assay type: biochemical; conditions: protocols of Examples B-1 and/or B-2
T1 construct: Human KDR (residues K790-V1356, 55 nM); purchased Eurofins Pharma Discovery Services UK Limited (KinaseProfiler, B-1) and/or CarnaBio (B-2)
T1 sequence (P35968 790-1356): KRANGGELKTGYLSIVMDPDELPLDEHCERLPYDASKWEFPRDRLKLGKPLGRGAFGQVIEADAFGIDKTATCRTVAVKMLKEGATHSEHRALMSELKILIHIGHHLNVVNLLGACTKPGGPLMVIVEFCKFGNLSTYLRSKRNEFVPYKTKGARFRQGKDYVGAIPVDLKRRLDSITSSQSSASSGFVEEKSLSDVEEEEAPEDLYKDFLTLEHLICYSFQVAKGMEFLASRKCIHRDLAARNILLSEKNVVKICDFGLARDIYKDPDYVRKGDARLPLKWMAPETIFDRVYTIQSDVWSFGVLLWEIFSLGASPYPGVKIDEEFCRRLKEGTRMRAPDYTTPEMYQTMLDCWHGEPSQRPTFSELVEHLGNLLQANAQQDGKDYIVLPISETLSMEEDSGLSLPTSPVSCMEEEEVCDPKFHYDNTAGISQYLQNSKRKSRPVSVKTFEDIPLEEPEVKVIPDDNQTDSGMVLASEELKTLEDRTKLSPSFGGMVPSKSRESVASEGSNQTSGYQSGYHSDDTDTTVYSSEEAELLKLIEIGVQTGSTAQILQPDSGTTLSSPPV
How it was run: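 Radiometric: KDR K790-V1356 (55 nM), MOPS pH 7.0, myelin basic protein, 10 μM [γ-33P]ATP, 40 min at room temperature, filter-bound 33P counted; nine half-log doses, top 1 μM. HTRF: KDR 790-1356, 1 μM biotinylated peptide, ATP at Km (4.0 μM), 40 min, 10 doses. IC50 from logistic fits.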

Human Axl = target: T2, Human Axl (Homo sapiens, UniProt P30530); experiment: Human AXL kinase assay (33P radiometric / HTRF KinEase); assay type: biochemical; conditions: protocols of Examples A-1 and/or A-2
T2 construct: Human AXL (residues 464-885)
T2 sequence (P30530 1-894 Q764R): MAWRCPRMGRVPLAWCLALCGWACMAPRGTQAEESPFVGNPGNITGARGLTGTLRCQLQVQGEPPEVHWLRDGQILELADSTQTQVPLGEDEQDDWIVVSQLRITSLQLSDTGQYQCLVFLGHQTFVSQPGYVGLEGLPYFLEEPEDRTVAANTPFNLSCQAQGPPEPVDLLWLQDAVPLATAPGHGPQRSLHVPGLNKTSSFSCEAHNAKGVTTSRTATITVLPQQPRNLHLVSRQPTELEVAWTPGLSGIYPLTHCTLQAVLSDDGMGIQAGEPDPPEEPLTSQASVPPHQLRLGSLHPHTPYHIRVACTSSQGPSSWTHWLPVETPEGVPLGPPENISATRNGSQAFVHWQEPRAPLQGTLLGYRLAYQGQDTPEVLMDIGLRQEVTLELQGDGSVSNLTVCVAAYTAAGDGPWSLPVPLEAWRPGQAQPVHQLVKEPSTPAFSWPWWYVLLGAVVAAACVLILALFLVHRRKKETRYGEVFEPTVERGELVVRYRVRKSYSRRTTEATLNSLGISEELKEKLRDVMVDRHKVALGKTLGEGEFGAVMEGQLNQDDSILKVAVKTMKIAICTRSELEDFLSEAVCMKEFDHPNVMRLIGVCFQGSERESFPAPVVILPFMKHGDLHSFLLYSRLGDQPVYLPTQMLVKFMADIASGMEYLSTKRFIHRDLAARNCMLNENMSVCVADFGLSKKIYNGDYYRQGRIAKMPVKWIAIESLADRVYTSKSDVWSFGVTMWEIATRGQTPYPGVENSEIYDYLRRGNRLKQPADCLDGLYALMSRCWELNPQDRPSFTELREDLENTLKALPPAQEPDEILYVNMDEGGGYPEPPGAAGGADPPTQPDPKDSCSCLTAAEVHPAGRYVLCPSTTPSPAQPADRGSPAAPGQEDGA
Protocol: Kinase activity and compound inhibition were investigated using the ^33P-Phosphoryl transfer radiometric kinase assay, performed using the KinaseProfiler™ service of Eurofins Pharma Discovery Services UK Limited. Dose-response experiments were performed using nine compound concentrations in a 96-well microtiter plate. For each assay, all compounds were prepared to a 50× final assay concentration (50 μM) in 100% DMSO, then diluted in a half-log series, with the final top concentration at 1 μM. This working stock of the compound was added to the assay well as the first component in the reaction, followed by the remaining components as detailed in the following assay protocols below. The positive control wells (100% kinase activity) contain all components of the reaction including 2% DMSO (control for solvent effects), except the compound of interest. Blank wells contain all components of the reaction, with the reference inhibitor, staurosporine. This reference compound was used to abolish kinase activity and generated the 0% kinase activity base-line. IC50 values were calculated by nonlinear regression analysis using the sigmoidal dose-response (variable slope) curve fit on XLFit version 5.3 (ID Business Solutions).
Kinase activity and compound inhibition were also investigated using the HTRF® KinEase assay (Cisbio Cat #62TKOPEB) per manufacturer's instructions. In short, compounds were delivered in 300 nL volumes at 10 different concentrations in DMSO (3% final) to empty 384-well assay plates (Corning cat #3824). A mixture of enzyme, 1 μM biotinylated peptide substrate, and buffer in 10 μL volume was added. The assay was started upon the addition of ATP (at Km). The 10 μL reaction was incubated at room temperature. The reaction was stopped upon the addition of detection buffer containing streptavidin-XL665 (5 μL) and TK antibody-Eu3+(5 μL). After a 60 min incubation at room temperature, the fluorescence at 665 nm and 620 nm was read on an Envision microplate reader (Perkin Elmer).
Kinase activity normalized to DMSO (100% activity) and reference compound at 1 μM and (0% activity) was calculated using the fluorescence ratio […]. IC50 values were calculated by nonlinear regression analysis using a 4-parameter logistic curve fit in ActivityBase XE (IDBS).
Example A-1: Human Axl (residues H473-A894 with Q764R, 161 nM) was incubated with 8 mM MOPS pH 7.0, 0.2 mM EDTA, 250 μM KKSRGDYMTMQIG (SEQ ID NO:1), 10 mM magnesium acetate and 10 μM [γ-^33P-ATP]. The reaction was initiated by the addition of the Mg/ATP mix. After incubation for 40 minutes at room temperature, the reaction was stopped by the addition of phosphoric acid to a concentration of 0.5%. A reaction aliquot of 10 μL was then spotted onto a P30 filtermat and washed four times for 4 minutes in 0.425% phosphoric acid and once in methanol prior to drying and scintillation counting. Incorporated ^33P was measured using the Wallac Microbeta scintillation counter (Perkin Elmer).
Example A-2: Human AXL (residues 464-885; CarnaBio, 1 ng/well) was also incubated with enzymatic buffer (Cisbio) supplemented with 5 mM MgCl2, 1 mM DTT, and Supplemental Enzymatic Buffer (SEB; Cisbio). The mixture was added to the pre-plated compounds. The reaction was initiated upon addition of ATP at Km (1.0 μM). The reaction was incubated at room temperature for 50 min and stopped upon the addition of SA-XL665 and TK-antibody both diluted in EDTA-containing kinase detection buffer (Cisbio). The kinase activity was calculated as stated above and the IC50 values were reported.

IC50 (Human KDR) | IC50 (Human Axl) | SMILES
≤ 0.1 µM | ≤ 0.1 µM | COc1cc2nccc(Oc3ccc(NC(=O)c4c(C)nc(C)c(C(C)C)c4O)cc3)c2nc1OC [Compound 9, N-[4-[(6,7-Dimethoxy-1,5-naphthyridin-4-yl)oxy]phenyl]-4-hydroxy-2,6-dimethyl-5-propan-2-ylpyridine-3-carboxamide]
> 0.3 µM | ≤ 0.1 µM | COc1cc2nccc(Oc3cc(F)c(NC(=O)c4c(C)n(C)c(C)c(C5CC5)c4=O)cc3F)c2nc1OC [Compound 47, 5-Cyclopropyl-N-[4-[(6,7-dimethoxy-1,5-naphthyridin-4-yl)oxy]-2,5-difluorophenyl]-1,2,6-trimethyl-4-oxopyridine-3-carboxamide]
> 0.3 µM | 0.1 to 0.3 µM | COCCOc1cc2nccc(Oc3cc(F)c(NC(=O)c4c(C)n(C)c(C)c(C#N)c4=O)cc3F)c2nc1OC [Compound 83, 5-Cyano-N-[2,5-difluoro-4-[[6-methoxy-7-(2-methoxyethoxy)-1,5-naphthyridin-4-yl]oxy]phenyl]-1,2,6-trimethyl-4-oxopyridine-3-carboxamide]
> 0.3 µM | > 0.3 µM | COCCOc1cc2nccc(Oc3cc(F)c(NC(=O)c4c(C)nc(C)c(C(N)=O)c4O)cc3F)c2nc1OC [Compound 86, 3-N-[2,5-Difluoro-4-[[6-methoxy-7-(2-methoxyethoxy)-1,5-naphthyridin-4-yl]oxy]phenyl]-4-hydroxy-2,6-dimethylpyridine-3,5-dicarboxamide]
≤ 0.1 µM | ≤ 0.1 µM | COc1cc2nccc(Oc3cc(F)c(NC(=O)c4c(C)nc(C)c(C(C)C)c4O)cc3F)c2nc1OC [Compound 10, N-[4-[(6,7-Dimethoxy-1,5-naphthyridin-4-yl)oxy]-2,5-difluorophenyl]-4-hydroxy-2,6-dimethyl-5-propan-2-ylpyridine-3-carboxamide]
> 0.3 µM | > 0.3 µM | COc1cnc2c(Oc3ccc(NC(=O)c4c(C)nc(C)c(C(N)=O)c4O)cc3F)ccnc2c1 [Compound 91, 3-N-[3-Fluoro-4-[(7-methoxy-1,5-naphthyridin-4-yl)oxy]phenyl]-4-hydroxy-2,6-dimethylpyridine-3,5-dicarboxamide]
≤ 0.1 µM | ≤ 0.1 µM | COc1cc2nccc(Oc3ccc(NC(=O)c4c(C)n(C)c(C)c(/C=C/C(C)(C)C)c4=O)cc3F)c2nc1OC [Compound 49, N-[4-[(6,7-Dimethoxy-1,5-naphthyridin-4-yl)oxy]-3-fluorophenyl]-5-[(E)-3,3-dimethylbut-1-enyl]-1,2,6-trimethyl-4-oxopyridine-3-carboxamide]
≤ 0.1 µM | ≤ 0.1 µM | COc1cc2nccc(Oc3ccc(NC(=O)c4c(C)nc(C)c(C(C)C)c4O)cc3F)c2nc1OC [Compound 31, N-[4-[(6,7-Dimethoxy-1,5-naphthyridin-4-yl)oxy]-3-fluorophenyl]-4-hydroxy-2,6-dimethyl-5-propan-2-ylpyridine-3-carboxamide]
≤ 0.1 µM | ≤ 0.1 µM | C=C(C)c1c(C)nc(C)c(C(=O)Nc2cc(F)c(Oc3ccnc4cc(OC)c(OC)nc34)cc2F)c1O [Compound 6, N-[4-[(6,7-Dimethoxy-1,5-naphthyridin-4-yl)oxy]-2,5-difluorophenyl]-4-hydroxy-2,6-dimethyl-5-prop-1-en-2-ylpyridine-3-carboxamide]

The remaining lines, values behind:

SMILES | IC50 (Human KDR) | IC50 (Human Axl)
COCCOc1cc2nccc(Oc3ccc(NC(=O)c4c(C)n(C)c(C)c(/C=C/C5CC5)c4=O)cc3F)c2nc1OC [Compound 51, 5-[(E)-2-Cyclopropylethenyl]-N-[3-fluoro-4-[[6-methoxy-7-(2-methoxyethoxy)-1,5-naphthyridin-4-yl]oxy]phenyl]-1,2,6-trimethyl-4-oxopyridine-3-carboxamide] | > 0.3 µM | ≤ 0.1 µM
COCCOc1cc2nccc(Oc3ccc(NC(=O)c4cnc(C)c(C5=CCOCC5)c4O)cc3F)c2nc1OC [Compound 35, 5-(3,6-Dihydro-2H-pyran-4-yl)-N-[3-fluoro-4-[[6-methoxy-7-(2-methoxyethoxy)-1,5-naphthyridin-4-yl]oxy]phenyl]-4-hydroxy-6-methylpyridine-3-carboxamide] | ≤ 0.1 µM | ≤ 0.1 µM
COc1cc2nccc(Oc3ccc(NC(=O)c4cnc(C)c(C5=CCCCC5)c4O)cc3)c2cc1OC [Compound 24, 5-(Cyclohexen-1-yl)-N-[4-(6,7-dimethoxyquinolin-4-yl)oxyphenyl]-4-hydroxy-6-methylpyridine-3-carboxamide] | ≤ 0.1 µM | ≤ 0.1 µM
C=C(C)n1c(C)cc(C)c(C(=O)Nc2ccc(Oc3ccnc4cc(OC)cnc34)c(F)c2)c1=O [Compound 21, N-[3-Fluoro-4-[(7-methoxy-1,5-naphthyridin-4-yl)oxy]phenyl]-4,6-dimethyl-2-oxo-1-prop-1-en-2-ylpyridine-3-carboxamide] | 0.1 to 0.3 µM | > 0.3 µM
COc1cc2nccc(Oc3ccc(NC(=O)c4cnc(C)c(/C=C/C(C)(C)C)c4O)cc3F)c2cc1OC [Compound 30, N-[4-(6,7-Dimethoxyquinolin-4-yl)oxy-3-fluorophenyl]-5-[(E)-3,3-dimethylbut-1-enyl]-4-hydroxy-6-methylpyridine-3-carboxamide] | ≤ 0.1 µM | ≤ 0.1 µM
COc1cnc2c(Oc3ccc(NC(=O)c4cnc(C)c(C5=CCCC5)c4O)cc3F)ccnc2c1 [Compound 1-9, 5-(Cyclopenten-1-yl)-N-[3-fluoro-4-[(7-methoxy-1,5-naphthyridin-4-yl)oxy]phenyl]-4-hydroxy-6-methylpyridine-3-carboxamide] | ≤ 0.1 µM | ≤ 0.1 µM
COc1cnc2c(Oc3ccc(NC(=O)c4c(C)n(C)c(C)c(C#N)c4=O)cc3F)ccnc2c1 [Compound 81, 5-Cyano-N-[3-fluoro-4-[(7-methoxy-1,5-naphthyridin-4-yl)oxy]phenyl]-1,2,6-trimethyl-4-oxopyridine-3-carboxamide] | > 0.3 µM | > 0.3 µM
COc1cc2nccc(Oc3ccc(NC(=O)c4cnc(C)c(/C=C/C5CC5)c4O)cc3F)c2nc1OC [Compound 26, 5-[(E)-2-Cyclopropylethenyl]-N-[4-[(6,7-dimethoxy-1,5-naphthyridin-4-yl)oxy]-3-fluorophenyl]-4-hydroxy-6-methylpyridine-3-carboxamide] | ≤ 0.1 µM | ≤ 0.1 µM
